# Reference: patent US10782295B2, “Cysteine-reactive ligand discovery in proteomes” (THE SCRIPPS RESEARCH INSTITUTE, priority 2013, dated 2020)
# What was measured:
# Assay in all cases: competitive isoTOP-ABPP, MDA-MB-231 soluble proteome
# Assay type in all cases: binding
# CCT8 = biological target: T1, CCT8 (Homo sapiens, UniProt P50990); conditions: 100 μM LDE, 60 min; peptide IAVYSC*PFDGMITETK
# T1 construct: directly in native proteomes; endogenous in cells; host or cells: MDA-MB-231
# T1 sequence (P50990 1-548): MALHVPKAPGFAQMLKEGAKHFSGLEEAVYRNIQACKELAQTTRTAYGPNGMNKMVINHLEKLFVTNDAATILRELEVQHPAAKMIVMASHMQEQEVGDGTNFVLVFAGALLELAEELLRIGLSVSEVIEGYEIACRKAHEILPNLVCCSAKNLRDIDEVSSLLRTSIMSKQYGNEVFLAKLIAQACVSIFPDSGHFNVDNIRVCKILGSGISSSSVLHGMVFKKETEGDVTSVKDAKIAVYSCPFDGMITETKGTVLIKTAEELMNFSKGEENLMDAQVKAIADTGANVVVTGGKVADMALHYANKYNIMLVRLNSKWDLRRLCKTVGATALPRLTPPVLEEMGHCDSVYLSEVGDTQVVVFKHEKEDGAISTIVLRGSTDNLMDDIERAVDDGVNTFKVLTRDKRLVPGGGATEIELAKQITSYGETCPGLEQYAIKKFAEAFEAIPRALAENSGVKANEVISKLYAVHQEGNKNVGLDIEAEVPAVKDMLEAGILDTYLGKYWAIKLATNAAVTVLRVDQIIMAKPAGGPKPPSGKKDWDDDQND
# Protocol: (§1) Here, we envisioned that isoTOP-ABPP could be advanced to discover and quantify reactions between cysteines in proteomes and any electrophilic compound. In this advanced, ‘competitive’ version of isoTOP-ABPP (FIG. 1a), a proteome is treated with an electrophile (experimental sample) or DMSO (control sample). Both proteomic samples are then labeled with the IA probe and conjugated by CuAAC to light and heavy azide-biotin tags, respectively. The light and heavy samples are then mixed and subjected to our described isoTOP-ABPP protocol for enrichment, identification, and quantification of IA-labeled cysteines^30. Electrophile-modified cysteines are quantified by measuring the MS1 chromatographic peak ratios (R values) for heavy (DMSO-treated) over light (electrophile-treated) samples, with higher R values reflecting greater sensitivity to the electrophile. In this format, competitive isoTOP-ABPP can assay electrophiles against 1000+ cysteines in parallel directly in native proteomes without requiring any chemical modification to the electrophiles themselves.
# (§2) Competitive isoTOP-ABPP experiments were performed in quadruplicate using the soluble proteome of the human breast cancer cell line MDA-MB-231 cell line. Proteomes were treated with 100 μM HNE, 15d-PGJ2, or 2-HD, for 60 minutes, followed by the IA-probe (100 μM, 60 min) A total of ˜1400 cysteine reactivities were quantified across the aggregate data set, with at least 900 cysteine reactivities quantified for each LDE (FIG. 2a) more than 750 of which were quantified for all the three electrophiles.
# (§3) HNE was purchased from EMD biosciences, 15d-PGJ2 was purchased from Cayman Chemicals and 2-HD was purchased from Santa Cruz Biotechnology. Proteome samples were diluted to a 4 mg protein/mL solution in PBS. For each profiling experiment, one aliquot of the proteome sample (0.5 mL) was treated with 100 μM of LDE using 5 μL of a 10 mM stock and the other aliquot was treated with 5 μL of either ethanol (for HNE and 15d-PGJ2) or DMSO (for 2-HD) as control. For the concentration-dependent profiling experiments using HNE, aliquots of the proteomes (0.5 mL each) were treated with 5, 10, 50, 100 and 500 μM of HNE using 5 μL of 0.5, 1.0, 5, 10 and 50 mM of stock solution, respectively. After 60 minutes of treatment at room temperature, both the LDE-treated and control aliquots were passed through a NAP-5 Sephadex column (GE healthcare) to remove any unreacted LDE. The volume of each aliquot was increased to 1 mL with the concentration at 2 mg/mL after this step.
# (§4) Each of the control and LDE-treated proteome samples (˜2 mg protein/mL in 1 mL volume) was treated with 100 μM of IA-probe using 10 μL of a 10 mM stock in DMSO. The labeling reactions were incubated at room temperature for 1 hour. Click chemistry (acetylene-azide cycloaddition) was performed by the addition of 100 μM of either the Heavy-TEV-Tag (for the control sample) or Light-TEV-Tag (for the LDE-treated sample) (20 μL of a 5 mM stock), 1 mM TCEP (fresh 50× stock in water), 100 μM ligand (17× stock in DMSO:t-Butanol 1:4) and 1 mM CuSO4 (50× stock in water). Samples were allowed to react at room temperature for 1 hour. After the click chemistry step, the light and heavy-labeled samples were mixed together and centrifuged (5900×g, 4 min, 4° C.) to pellet the precipitated proteins.
# (§5) The pellets were washed twice in cold MeOH, after which the pellet was solubilized in PBS containing 1.2% SDS via sonication and heating (5 min, 80° C.). Samples were subjected to streptavidin enrichment of probe-labeled proteins, sequential on-bead trypsin and TEV digestion, and liquid chromatography-mass spectrometry (LC-MS) analysis according to the published isoTOP-ABPP protocol^30.
# (§6) IA-probe labeled peptides were identified by SEQUEST2 and DTASelect3, and the quantification of heavy/light ratios (isoTOP-ABPP ratios, R) was performed by an in-house software (CIMAGE) as previously described. […]
# HPCA = biological target: T2, HPCA (Homo sapiens, UniProt P84074); conditions: 100 μM LDE, 60 min; peptide LLQC*DPSSASQF
# T2 construct: directly in native proteomes; endogenous in cells; host or cells: MDA-MB-231
# Protocol: as §1, §2, §3, §4, §5, §6
# IDH1 = biological target: T3, IDH1 (Homo sapiens, UniProt O75874); conditions: 100 μM LDE, 60 min; peptide SEGGFIWAC*K
# T3 construct: directly in native proteomes; endogenous in cells; host or cells: MDA-MB-231
# T3 sequence (O75874 whole entry): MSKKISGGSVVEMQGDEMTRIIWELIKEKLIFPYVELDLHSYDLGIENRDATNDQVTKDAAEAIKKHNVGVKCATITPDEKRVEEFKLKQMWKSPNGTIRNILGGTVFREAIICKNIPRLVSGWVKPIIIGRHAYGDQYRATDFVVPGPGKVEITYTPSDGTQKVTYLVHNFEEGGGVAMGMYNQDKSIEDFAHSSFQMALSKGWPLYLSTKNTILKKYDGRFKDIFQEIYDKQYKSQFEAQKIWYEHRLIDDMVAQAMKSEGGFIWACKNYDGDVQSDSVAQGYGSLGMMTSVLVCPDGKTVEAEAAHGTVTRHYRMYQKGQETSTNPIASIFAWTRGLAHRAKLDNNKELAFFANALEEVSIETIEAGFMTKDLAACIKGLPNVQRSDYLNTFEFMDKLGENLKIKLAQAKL
# Protocol: as §1, §2, §3, §4, §5, §6
# MAP2K6 = biological target: T4, MAP2K6 (Homo sapiens, UniProt P52564); conditions: 100 μM LDE, 60 min; peptide MC*DFGISGYLVDSVAK
# T4 construct: directly in native proteomes; endogenous in cells; host or cells: MDA-MB-231
# T4 sequence (P52564 1-334): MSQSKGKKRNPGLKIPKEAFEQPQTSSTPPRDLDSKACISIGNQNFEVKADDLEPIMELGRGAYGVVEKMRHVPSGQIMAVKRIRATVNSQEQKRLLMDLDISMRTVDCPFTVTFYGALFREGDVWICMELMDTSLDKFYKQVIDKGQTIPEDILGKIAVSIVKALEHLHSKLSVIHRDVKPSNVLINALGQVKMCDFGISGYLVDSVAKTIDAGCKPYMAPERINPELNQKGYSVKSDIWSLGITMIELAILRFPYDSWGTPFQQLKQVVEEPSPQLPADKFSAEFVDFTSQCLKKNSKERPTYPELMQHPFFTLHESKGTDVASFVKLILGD
# Protocol: as §1, §2, §3, §4, §5, §6
# MAPK9 = biological target: T5, MAPK9 (Homo sapiens, UniProt P45984); conditions: 100 μM LDE, 60 min; peptide TLEEFQDVYLVMELMDANLC*QVIHMELDHER
# T5 construct: directly in native proteomes; endogenous in cells; host or cells: MDA-MB-231
# T5 sequence (P45984 whole entry): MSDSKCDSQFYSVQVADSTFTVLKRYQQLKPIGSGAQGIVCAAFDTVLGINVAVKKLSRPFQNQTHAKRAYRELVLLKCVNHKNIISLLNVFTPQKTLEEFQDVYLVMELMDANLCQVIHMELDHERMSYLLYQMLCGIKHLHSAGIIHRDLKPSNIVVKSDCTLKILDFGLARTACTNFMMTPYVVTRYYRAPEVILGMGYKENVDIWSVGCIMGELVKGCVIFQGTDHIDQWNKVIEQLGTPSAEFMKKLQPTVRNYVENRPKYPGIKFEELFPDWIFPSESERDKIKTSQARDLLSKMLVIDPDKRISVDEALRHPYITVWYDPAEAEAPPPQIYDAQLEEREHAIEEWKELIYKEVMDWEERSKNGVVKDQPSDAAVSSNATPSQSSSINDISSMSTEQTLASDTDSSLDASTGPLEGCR
# Protocol: as §1, §2, §3, §4, §5, §6
Compound,R value (isoTOP-ABPP ratio heavy/light) for IA-labeled cysteine of CCT8 (CCT8),R value (isoTOP-ABPP ratio heavy/light) for IA-labeled cysteine of HPCA (HPCA),R value (isoTOP-ABPP ratio heavy/light) for IA-labeled cysteine of IDH1 (IDH1),R value (isoTOP-ABPP ratio heavy/light) for IA-labeled cysteine of MAP2K6 (MAP2K6),R value (isoTOP-ABPP ratio heavy/light) for IA-labeled cysteine of MAPK9 (MAPK9)
"CCCCCCCCCCCCC/C=C/C=O [2-HD, 2-trans-hexadecenal]",1.06,1.13,1.13,1.15,1.14
"CCCCCC(O)/C=C/C=O (stereo not drawn) [4-HNE, 4-Hydroxynonenal]",1.14,2.17,1.3,1.9,5.08
"CCCCC/C=C/C=C1/C(=O)C=C[C@@H]1C/C=C\CCCC(=O)O [PGJ2, 15-deoxy-Δ12,14-prostaglandin J2]",7.75,7.21,6.66,7.43,1.78
